# Test results taken from US11279733B2, “Peptide antibiotics” (priority 2017, dated 2022).
# Test system: bacterial strains
# Assay: Potentiation/synergy antimicrobial assay (checkerboard, FICI) with antibiotics
# Format: cell-based
# Settings: for MIC of antibiotic with 6442 at concn 0: 6442 0 μg/mL; for MIC of antibiotic with 6442 at concn 0.03: 6442 0.03 μg/mL; for MIC of antibiotic with 6442 at concn 0.0625: 6442 0.0625 μg/mL; for MIC of antibiotic with 8980 at conc 0: 8980 0 μg/mL; for MIC of antibiotic with 8980 at conc 1: 8980 1 μg/mL; for MIC of antibiotic with 8980 at conc 2: 8980 2 μg/mL; for MIC of antibiotic with 8980 at conc 4: 8980 4 μg/mL; for MIC of antibiotic with 8980 at conc 8: 8980 8 μg/mL; for MIC of antibiotic with 8981 at conc 0: 8981 0 μg/mL; for MIC of antibiotic with 8981 at conc 1: 8981 1 μg/mL; for MIC of antibiotic with 8981 at conc 2: 8981 2 μg/mL; for MIC of antibiotic with 8981 at conc 4: 8981 4 μg/mL; for MIC of antibiotic with 8981 at conc 8: 8981 8 μg/mL; for MIC of antibiotic with OctC4 at concn 0: OctC4 0 μg/mL; for MIC of antibiotic with OctC4 at concn 0.03: OctC4 0.03 μg/mL; for MIC of antibiotic with OctC4 at concn 0.0625: OctC4 0.0625 μg/mL; for MIC of antibiotic with OctC4 at concn 0.125: OctC4 0.125 μg/mL; for MIC of antibiotic with 6442 at concn 0.25: 6442 0.25 μg/mL; for MIC of antibiotic with 6442 at concn 0.125: 6442 0.125 μg/mL; for MIC of antibiotic with OctC4 at concn 0.25: OctC4 0.25 μg/mL
# Method: Potentiation/synergy antimicrobial assays were conducted in the same manner as the standard MICs described above, with the following modifications. Assays were performed in 384-well non-binding surface plates (NBS; Corning 3460) and in Cation-adjusted Mueller Hinton Broth (CA-MHB; BD, Cat. No. 212322) with a final assay volume of 50 μL once bacteria was added at 5×10^5 CFU/mL. Antibiotics and octapeptin compounds were plated in duplicate as a 2-fold concentration series, in a matrix checkerboard format. The bacterial cell density of the resultant assay plates after 18-20 h incubation at 37° C. was read by optical density 600 nm (OD600) using a Tecan M1000 Pro Spectrophotometer, and analysed for ≥90% growth inhibition compared to the growth control to determine active concentrations. Synergistic effect was calculated based on the fractional inhibitory concentration index (FICI) by the following equation, where synergy is deemed FICI 0.5: […]
compound,measurement,setting,value
"CN(C)c1ccc(O)c2c1C[C@H]1C[C@H]3[C@H](N(C)C)C(O)=C(C(N)=O)C(=O)[C@@]3(O)C(O)=C1C2=O [Minocycline, minocycline]",MIC of antibiotic with 6442 at concn 0,GN_007 E. coli ESBL,0.25 µg/mL
same,MIC of antibiotic with 6442 at concn 0.03,GN_007 E. coli ESBL,0.25 µg/mL
same,MIC of antibiotic with 6442 at concn 0.0625,GN_007 E. coli ESBL,0.125 µg/mL
same,MIC of antibiotic with 8980 at conc 0,GN_007 E. coli ESBL,0.25 µg/mL
same,MIC of antibiotic with 8980 at conc 1,GN_007 E. coli ESBL,0.125 to 0.25 µg/mL
same,MIC of antibiotic with 8980 at conc 2,GN_007 E. coli ESBL,0.125 µg/mL
same,MIC of antibiotic with 8980 at conc 4,GN_007 E. coli ESBL,0.06 to 0.125 µg/mL
same,MIC of antibiotic with 8980 at conc 8,GN_007 E. coli ESBL,0.06 to 0.125 µg/mL
same,MIC of antibiotic with 8981 at conc 0,GN_007 E. coli ESBL,0.25 µg/mL
same,MIC of antibiotic with 8981 at conc 1,GN_007 E. coli ESBL,0.25 µg/mL
same,MIC of antibiotic with 8981 at conc 2,GN_007 E. coli ESBL,0.125 to 0.25 µg/mL
same,MIC of antibiotic with 8981 at conc 4,GN_007 E. coli ESBL,0.03 to 0.125 µg/mL
same,MIC of antibiotic with 8981 at conc 8,GN_007 E. coli ESBL,0.03 to 0.125 µg/mL
same,MIC of antibiotic with OctC4 at concn 0,GN_007 E. coli ESBL,0.25 µg/mL
same,MIC of antibiotic with OctC4 at concn 0.03,GN_007 E. coli ESBL,0.25 µg/mL
same,MIC of antibiotic with OctC4 at concn 0.0625,GN_007 E. coli ESBL,0.125 to 0.25 µg/mL
same,MIC of antibiotic with OctC4 at concn 0.125,GN_007 E. coli ESBL,0.125 µg/mL
same,MIC of antibiotic with 8980 at conc 0,GN_019 A. baumannii CARB,4 µg/mL
same,MIC of antibiotic with 8981 at conc 0,GN_019 A. baumannii CARB,4 µg/mL
same,MIC of antibiotic with 8981 at conc 1,GN_019 A. baumannii CARB,2 to 16 µg/mL
same,MIC of antibiotic with 8981 at conc 2,GN_019 A. baumannii CARB,2 to 16 µg/mL
same,MIC of antibiotic with 6442 at concn 0,GN_045 K. pneumoniae NDM-1,32 µg/mL
same,MIC of antibiotic with 6442 at concn 0.03,GN_045 K. pneumoniae NDM-1,32 µg/mL
same,MIC of antibiotic with 6442 at concn 0.0625,GN_045 K. pneumoniae NDM-1,32 µg/mL
same,MIC of antibiotic with 8980 at conc 0,GN_045 K. pneumoniae NDM-1,32 µg/mL
same,MIC of antibiotic with 8981 at conc 0,GN_045 K. pneumoniae NDM-1,32 µg/mL
same,MIC of antibiotic with OctC4 at concn 0,GN_045 K. pneumoniae NDM-1,32 µg/mL
same,MIC of antibiotic with OctC4 at concn 0.03,GN_045 K. pneumoniae NDM-1,32 µg/mL
same,MIC of antibiotic with OctC4 at concn 0.0625,GN_045 K. pneumoniae NDM-1,32 µg/mL
same,MIC of antibiotic with OctC4 at concn 0.125,GN_045 K. pneumoniae NDM-1,32 µg/mL
same,MIC of antibiotic with 8980 at conc 0,GN_093 A. baumannii XDR/PmxR,8 µg/mL
same,MIC of antibiotic with 8981 at conc 0,GN_093 A. baumannii XDR/PmxR,8 µg/mL
same,MIC of antibiotic with 8981 at conc 1,GN_093 A. baumannii XDR/PmxR,4 to 32 µg/mL
same,MIC of antibiotic with 8981 at conc 2,GN_093 A. baumannii XDR/PmxR,2 to 32 µg/mL
same,MIC of antibiotic with 6442 at concn 0,GN_102 K. pneumoniae XDR/PmxR,32 µg/mL
same,MIC of antibiotic with 6442 at concn 0.03,GN_102 K. pneumoniae XDR/PmxR,16 µg/mL
same,MIC of antibiotic with 6442 at concn 0.0625,GN_102 K. pneumoniae XDR/PmxR,16 µg/mL
same,MIC of antibiotic with 8980 at conc 0,GN_102 K. pneumoniae XDR/PmxR,32 µg/mL
same,MIC of antibiotic with 8981 at conc 0,GN_102 K. pneumoniae XDR/PmxR,32 µg/mL
same,MIC of antibiotic with OctC4 at concn 0,GN_102 K. pneumoniae XDR/PmxR,32 µg/mL
same,MIC of antibiotic with OctC4 at concn 0.03,GN_102 K. pneumoniae XDR/PmxR,32 µg/mL
same,MIC of antibiotic with OctC4 at concn 0.0625,GN_102 K. pneumoniae XDR/PmxR,16 µg/mL
same,MIC of antibiotic with OctC4 at concn 0.125,GN_102 K. pneumoniae XDR/PmxR,16 µg/mL
same,MIC of antibiotic with 6442 at concn 0,GN_105 P. aeruginosa PmxR,8 µg/mL
same,MIC of antibiotic with 6442 at concn 0.03,GN_105 P. aeruginosa PmxR,4 µg/mL
same,MIC of antibiotic with 6442 at concn 0.0625,GN_105 P. aeruginosa PmxR,2 to 4 µg/mL
same,MIC of antibiotic with 6442 at concn 0.25,GN_105 P. aeruginosa PmxR,0.06 µg/mL
same,MIC of antibiotic with 8980 at conc 0,GN_105 P. aeruginosa PmxR,8 µg/mL
same,MIC of antibiotic with 8980 at conc 2,GN_105 P. aeruginosa PmxR,1 µg/mL
same,MIC of antibiotic with 8980 at conc 4,GN_105 P. aeruginosa PmxR,1 µg/mL
same,MIC of antibiotic with 8981 at conc 0,GN_105 P. aeruginosa PmxR,8 µg/mL
same,MIC of antibiotic with OctC4 at concn 0,GN_105 P. aeruginosa PmxR,8 µg/mL
same,MIC of antibiotic with OctC4 at concn 0.03,GN_105 P. aeruginosa PmxR,8 µg/mL
same,MIC of antibiotic with OctC4 at concn 0.0625,GN_105 P. aeruginosa PmxR,4 µg/mL
same,MIC of antibiotic with OctC4 at concn 0.125,GN_105 P. aeruginosa PmxR,4 µg/mL
same,MIC of antibiotic with 6442 at concn 0,GN_181 E. coli mcr-1,4 µg/mL
same,MIC of antibiotic with 6442 at concn 0.03,GN_181 E. coli mcr-1,4 µg/mL
same,MIC of antibiotic with 6442 at concn 0.125,GN_181 E. coli mcr-1,1 µg/mL
same,MIC of antibiotic with 6442 at concn 0.25,GN_181 E. coli mcr-1,0.06 µg/mL
same,MIC of antibiotic with 8980 at conc 0,GN_181 E. coli mcr-1,4 µg/mL
same,MIC of antibiotic with 8980 at conc 1,GN_181 E. coli mcr-1,1 to 2 µg/mL
same,MIC of antibiotic with 8980 at conc 2,GN_181 E. coli mcr-1,0.5 to 2 µg/mL
same,MIC of antibiotic with 8980 at conc 4,GN_181 E. coli mcr-1,0.5 to 2 µg/mL
same,MIC of antibiotic with 8980 at conc 8,GN_181 E. coli mcr-1,0.5 to 2 µg/mL
same,MIC of antibiotic with 8981 at conc 0,GN_181 E. coli mcr-1,4 µg/mL
same,MIC of antibiotic with 8981 at conc 1,GN_181 E. coli mcr-1,1 to 2 µg/mL
same,MIC of antibiotic with 8981 at conc 2,GN_181 E. coli mcr-1,1 to 2 µg/mL
same,MIC of antibiotic with 8981 at conc 4,GN_181 E. coli mcr-1,0.5 to 2 µg/mL
same,MIC of antibiotic with 8981 at conc 8,GN_181 E. coli mcr-1,0.5 to 2 µg/mL
same,MIC of antibiotic with OctC4 at concn 0,GN_181 E. coli mcr-1,4 µg/mL
same,MIC of antibiotic with OctC4 at concn 0.03,GN_181 E. coli mcr-1,4 µg/mL
same,MIC of antibiotic with OctC4 at concn 0.0625,GN_181 E. coli mcr-1,2 to 4 µg/mL
same,MIC of antibiotic with OctC4 at concn 0.25,GN_181 E. coli mcr-1,0.06 to 0.25 µg/mL
"CO[C@H]1/C=C/O[C@@]2(C)Oc3c(C)c(O)c4c(O)c(c(/C=N/N5CCN(C)CC5)c(O)c4c3C2=O)NC(=O)/C(C)=C\C=C\[C@H](C)[C@H](O)[C@@H](C)[C@@H](O)[C@@H](C)[C@H](OC(C)=O)[C@@H]1C [Rifampicin, rifampicin]",MIC of antibiotic with 6442 at concn 0,GN_102 K. pneumoniae XDR/PmxR,32 µg/mL
same,MIC of antibiotic with 6442 at concn 0.125,GN_102 K. pneumoniae XDR/PmxR,16 µg/mL
same,MIC of antibiotic with 8980 at conc 0,GN_102 K. pneumoniae XDR/PmxR,32 µg/mL
same,MIC of antibiotic with 8980 at conc 1,GN_102 K. pneumoniae XDR/PmxR,16 µg/mL
same,MIC of antibiotic with 8981 at conc 0,GN_102 K. pneumoniae XDR/PmxR,32 µg/mL
same,MIC of antibiotic with 8981 at conc 1,GN_102 K. pneumoniae XDR/PmxR,16 to 32 µg/mL
same,MIC of antibiotic with 8981 at conc 2,GN_102 K. pneumoniae XDR/PmxR,16 µg/mL
same,MIC of antibiotic with 8981 at conc 4,GN_102 K. pneumoniae XDR/PmxR,8 to 16 µg/mL
same,MIC of antibiotic with OctC4 at concn 0,GN_102 K. pneumoniae XDR/PmxR,32 µg/mL
same,MIC of antibiotic with OctC4 at concn 0.0625,GN_102 K. pneumoniae XDR/PmxR,32 µg/mL
same,MIC of antibiotic with OctC4 at concn 0.125,GN_102 K. pneumoniae XDR/PmxR,32 µg/mL
same,MIC of antibiotic with 6442 at concn 0,GN_181 E. coli mcr-1,32 µg/mL
same,MIC of antibiotic with 6442 at concn 0.25,GN_181 E. coli mcr-1,0.25 µg/mL
same,MIC of antibiotic with 8980 at conc 0,GN_181 E. coli mcr-1,32 µg/mL
same,MIC of antibiotic with 8980 at conc 1,GN_181 E. coli mcr-1,32 µg/mL
same,MIC of antibiotic with 8980 at conc 2,GN_181 E. coli mcr-1,32 µg/mL
same,MIC of antibiotic with 8980 at conc 4,GN_181 E. coli mcr-1,32 µg/mL
same,MIC of antibiotic with 8981 at conc 0,GN_181 E. coli mcr-1,32 µg/mL
same,MIC of antibiotic with 8981 at conc 1,GN_181 E. coli mcr-1,32 µg/mL
same,MIC of antibiotic with 8981 at conc 2,GN_181 E. coli mcr-1,32 µg/mL
same,MIC of antibiotic with 8981 at conc 4,GN_181 E. coli mcr-1,32 µg/mL
same,MIC of antibiotic with OctC4 at concn 0,GN_181 E. coli mcr-1,32 µg/mL
arenicin-3,MIC of antibiotic with OctC4 at concn 0,GN_043 P. aeruginosa PmxR,2 µg/mL
same,MIC of antibiotic with OctC4 at concn 0,GN_093 A. baumannii XDR/PmxR,0.5 µg/mL
same,MIC of antibiotic with OctC4 at concn 0.125,GN_093 A. baumannii XDR/PmxR,0.008 µg/mL
same,MIC of antibiotic with OctC4 at concn 0.25,GN_093 A. baumannii XDR/PmxR,0.016 µg/mL
